Measured values as given in patent publication US7531554B2, “4-oxoquinoline compound and use thereof as HIV integrase inhibitor” (Japan Tobacco Inc., priority 2004, dated 2009).
Structures can show the parent of a compound that is named as a salt.

molecular target: T1, HIV integrase (Human immunodeficiency virus type 1 group M subtype B, UniProt P12497, F1332H); assay: Determination of enzyme (HIV integrase) inhibitory activity; type: biochemical; conditions: recombinant integrase protein (F185H), donor DNA/target DNA, absorbance at 450 nm
T1 construct: HIV integrase full length gene (J. Virol., 67, 425-437 (1993)) in which phenylalanine at codon 185 was substituted by histidine; made in house; host or cells: Escherichia coli BL21(DE3)
Procedure, shortened: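 Full-length HIV integrase bearing F185H mutation, E. coli-expressed and purified, preincubated with compound on plate-bound biotinylated donor DNA for 60 min at 37 °C; digoxigenin-labelled target DNA then added for 10 min. Strand transfer detected by peroxidase anti-digoxigenin ELISA at 450 nm; IC50 from inhibition versus no-compound and no-enzyme controls.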

Structure (SMILES)	IC50 [nM]
COC[C@@H](CO)n1cc(C(=O)O)c(=O)c2cc(Cc3cccc(Cl)c3F)c(OC)cc21 [Example 2-18, 6-(3-chloro-2-fluorobenzyl)-1-((1R)-1-(hydroxymethyl)-2-methoxyethyl)-7-methoxy-4-oxo-1,4-dihydroquinoline-3-carboxylic acid]	6
CC(C)[C@@H](CO)n1cc(C(=O)O)c(=O)c2cc(Cc3cccc(Cl)c3F)c(N3CCNC(=O)C3)cc21 [Example 4-35, 6-(3-chloro-2-fluorobenzyl)-1-((1S)-1-(hydroxymethyl)-2-methylpropyl)-4-oxo-7-(3-oxopiperazin-1-yl)-1,4-dihydroquinoline-3-carboxylic acid]	6
CCOC(=O)N1CCC(Nc2cc3c(cc2Cc2cccc(Cl)c2F)c(=O)c(C(=O)O)cn3[C@H](CO)C(C)C)CC1 [Example 4-40, 6-(3-chloro-2-fluorobenzyl)-7-(1-(ethoxycarbonyl)piperidin-4-ylamino)-1-((1S)-1-(hydroxymethyl)-2-methylpropyl)-4-oxo-1,4-dihydroquinoline-3-carboxylic acid]	6.8
COCCCOc1cc2c(cc1Cc1cccc(Cl)c1F)c(=O)c(C(=O)O)cn2[C@H](CO)C(C)C [Example 4-8, 6-(3-chloro-2-fluorobenzyl)-1-((1S)-1-(hydroxymethyl)-2-methylpropyl)-7-(3-methoxypropoxy)-4-oxo-1,4-dihydroquinoline-3-carboxylic acid]	4.7
CSC[C@@H](CO)n1cc(C(=O)O)c(=O)c2cc(Cc3cccc(Cl)c3F)ccc21 [Example 2-7, 6-(3-chloro-2-fluorobenzyl)-1-((1R)-1-(hydroxymethyl)-2-(methylthio)ethyl)-4-oxo-1,4-dihydroquinoline-3-carboxylic acid]	8.1
CC(C)[C@@H](CO)n1cc(C(=O)O)c(=O)c2cc(Cc3cccc(Cl)c3F)c(OC3CCN(S(C)(=O)=O)CC3)cc21 [Example 4-64, 6-(3-chloro-2-fluorobenzyl)-1-((1S)-1-(hydroxymethyl)-2-methylpropyl)-7-(1-mesylpiperidin-4-yloxy)-4-oxo-1,4-dihydroquinoline-3-carboxylic acid]	6.6
CC(=O)N[C@H]1CCN(c2cc3c(cc2Cc2cccc(Cl)c2F)c(=O)c(C(=O)O)cn3[C@H](CO)C(C)C)C1 [Example 4-26, 7-((3S)-3-(acetylamino)pyrrolidin-1-yl)-6-(3-chloro-2-fluorobenzyl)-1-((1S)-1-(hydroxymethyl)-2-methylpropyl)-4-oxo-1,4-dihydroquinoline-3-carboxylic acid]	9.2
CC(C)[C@@H](CO)n1cc(C(=O)O)c(=O)c2cc(Cc3cccc(Cl)c3F)c3c(c21)OCCO3 [Example 6-1, 10-(3-chloro-2-fluorobenzyl)-5-((1S)-1-hydroxymethyl-2-methylpropyl)-8-oxo-2,3,5,8-tetrahydro-1,4-dioxa-5-aza-phenanthrene-7-carboxylic acid]	5.9
CC(C)[C@@H](CO)n1cc(C(=O)O)c(=O)c2cc(Cc3cccc(Cl)c3F)c(OCc3ccccn3)cc21 [Example 4-59, 6-(3-chloro-2-fluorobenzyl)-1-((1S)-1-(hydroxymethyl)-2-methylpropyl)-4-oxo-7-(pyridin-2-ylmethoxy)-1,4-dihydroquinoline-3-carboxylic acid]	3.6
COc1cc2c(cc1Cc1cccc(Cl)c1F)c(=O)c(C(=O)O)cn2[C@H](CO)[C@@H](C)OC [Example 2-11, 6-(3-chloro-2-fluorobenzyl)-1-((1R,2R)-1-(hydroxymethyl)-2-methoxypropyl)-7-methoxy-4-oxo-1,4-dihydroquinoline-3-carboxylic acid]	5
CSCC[C@@H](CO)n1cc(C(=O)O)c(=O)c2cc(Cc3cccc(Cl)c3F)ccc21 [Example 2-16, 6-(3-chloro-2-fluorobenzyl)-1-((1S)-1-(hydroxymethyl)-3-(methylthio)propyl)-4-oxo-1,4-dihydroquinoline-3-carboxylic acid]	5.8
CC(C)([C@@H](CO)n1cc(C(=O)O)c(=O)c2cc(Cc3cccc(Cl)c3F)ccc21)S(C)(=O)=O [Example 2-10, 6-(3-chloro-2-fluorobenzyl)-1-((1R)-1-(hydroxymethyl)-2-mesyl-2-methylpropyl)-4-oxo-1,4-dihydroquinoline-3-carboxylic acid]	4.2
COc1cc2c(cc1Cc1cccc(Cl)c1F)c(=O)c(C(=O)O)cn2[C@H](CO)C(C)(C)S(C)(=O)=O [Example 2-6, 6-(3-chloro-2-fluorobenzyl)-1-((1R)-1-(hydroxymethyl)-2-mesyl-2-methylpropyl)-7-methoxy-4-oxo-1,4-dihydroquinoline-3-carboxylic acid]	3.8
CC(=O)N[C@@H]1CCN(c2cc3c(cc2Cc2cccc(Cl)c2F)c(=O)c(C(=O)O)cn3[C@H](CO)C(C)C)C1 [Example 4-27, 7-((3R)-3-(acetylamino)pyrrolidin-1-yl)-6-(3-chloro-2-fluorobenzyl)-1-((1S)-1-(hydroxymethyl)-2-methylpropyl)-4-oxo-1,4-dihydroquinoline-3-carboxylic acid]	16
CC(C)[C@@H](CO)n1cc(C(=O)O)c(=O)c2cc(Cc3cccc(Cl)c3F)c(N3CC[C@H](N)C3)cc21 [Example 4-38, 7-((3S)-3-aminopyrrolidin-1-yl)-6-(3-chloro-2-fluorobenzyl)-1-((1S)-1-(hydroxymethyl)-2-methylpropyl)-4-oxo-1,4-dihydroquinoline-3-carboxylic acid]	12
CC(C)[C@@H](CO)n1cc(C(=O)O)c(=O)c2cc(Cc3cccc(Cl)c3F)cc(OCCO)c21 [Example 3-1, 6-(3-chloro-2-fluorobenzyl)-8-(2-hydroxyethoxy)-1-((1S)-1-(hydroxymethyl)-2-methylpropyl)-4-oxo-1,4-dihydroquinoline-3-carboxylic acid]	5.1
CC(C)[C@@H](CO)n1cc(C(=O)O)c(=O)c2cc(Cc3cccc(Cl)c3F)c(OCc3ccc(C#N)cc3)cc21 [Example 4-56, 6-(3-chloro-2-fluorobenzyl)-7-(4-cyanobenzyloxy)-1-((1S)-1-(hydroxymethyl)-2-methylpropyl)-4-oxo-1,4-dihydroquinoline-3-carboxylic acid]	5
COCCOc1cc2c(cc1Cc1cccc(Cl)c1F)c(=O)c(C(=O)O)cn2[C@H](CO)C(C)C [Example 4-1, 6-(3-chloro-2-fluorobenzyl)-1-((1S)-1-(hydroxymethyl)-2-methylpropyl)-7-(2-methoxyethoxy)-4-oxo-1,4-dihydroquinoline-3-carboxylic acid]	4.4
CC(C)[C@@H](CO)n1cc(C(=O)O)c(=O)c2cc(Cc3cccc(Cl)c3F)c(OCc3ccncc3)cc21 [Example 4-60, 6-(3-chloro-2-fluorobenzyl)-1-((1S)-1-(hydroxymethyl)-2-methylpropyl)-4-oxo-7-(pyridin-4-ylmethoxy)-1,4-dihydroquinoline-3-carboxylic acid]	4.3
CC(C)[C@@H](CO)n1cc(C(=O)O)c(=O)c2cc(Cc3cccc(Cl)c3F)cc(OCCCCO)c21 [Example 3-3, 6-(3-chloro-2-fluorobenzyl)-8-(4-hydroxybutoxy)-1-((1S)-1-(hydroxymethyl)-2-methylpropyl)-4-oxo-1,4-dihydroquinoline-3-carboxylic acid]	6.3
CC(C)[C@@H](CO)n1cc(C(=O)O)c(=O)c2cc(Cc3cccc(Cl)c3F)c(OCCN3CCCCC3)cc21 [Example 4-13, 6-(3-chloro-2-fluorobenzyl)-1-((1S)-1-(hydroxymethyl)-2-methylpropyl)-4-oxo-7-(2-(piperidin-1-yl)ethoxy)-1,4-dihydroquinoline-3-carboxylic acid]	6.3
CC(C)[C@@H](CO)n1cc(C(=O)O)c(=O)c2cc(Cc3cccc(Cl)c3F)cc(OCCCO)c21 [Example 3-2, 6-(3-chloro-2-fluorobenzyl)-1-((1S)-1-(hydroxymethyl)-2-methylpropyl)-8-(3-hydroxypropoxy)-4-oxo-1,4-dihydroquinoline-3-carboxylic acid]	4.7
COc1cc2c(cc1Cc1c(F)ccc(Cl)c1F)c(=O)c(C(=O)O)cn2[C@H](CO)C(C)C [Example 1-2, 6-(3-chloro-2,6-difluorobenzyl)-1-((1S)-1-(hydroxymethyl)-2-methylpropyl)-7-methoxy-4-oxo-1,4-dihydroquinoline-3-carboxylic acid]	3.8
CC(C)[C@@H](CO)n1cc(C(=O)O)c(=O)c2cc(Cc3cccc(Cl)c3F)c(O[C@H]3CCN(C)C3)cc21 [Example 4-54, 6-(3-chloro-2-fluorobenzyl)-1-((1S)-1-(hydroxymethyl)-2-methylpropyl)-7-((3S)-1-methylpyrrolidin-3-yloxy)-4-oxo-1,4-dihydroquinoline-3-carboxylic acid trifluoroacetate]	7.1
CS(=O)(=O)C[C@@H](CO)n1cc(C(=O)O)c(=O)c2cc(Cc3cccc(Cl)c3F)ccc21 [Example 2-8, 6-(3-chloro-2-fluorobenzyl)-1-((1R)-1-(hydroxymethyl)-2-mesylethyl)-4-oxo-1,4-dihydroquinoline-3-carboxylic acid]	20
CC(C)[C@@H](CO)n1cc(C(=O)O)c(=O)c2cc(Cc3cccc(Cl)c3F)c(O[C@H]3CCOC3)cc21 [Example 4-47, 6-(3-chloro-2-fluorobenzyl)-1-((1S)-1-(hydroxymethyl)-2-methylpropyl)-4-oxo-7-((3S)-tetrahydrofuran-3-yloxy)-1,4-dihydroquinoline-3-carboxylic acid]	6.6
CC(C)[C@@H](CO)n1cc(C(=O)O)c(=O)c2cc(Cc3cccc(Cl)c3F)c(N3CCN[C@@H](C)C3)cc21 [Example 4-30, 6-(3-chloro-2-fluorobenzyl)-1-((1S)-1-(hydroxymethyl)-2-methylpropyl)-7-((3S)-3-methylpiperazin-1-yl)-4-oxo-1,4-dihydroquinoline-3-carboxylic acid]	6.1
